# Source: patent US6677308B1, “Meta-substituted phenylene sulphonamide derivatives” (G. D. Searle & Co., priority 1996, dated 2004)
# Counter-ions that a name gives are not always drawn. Like-named read-outs stand apart in the source and are kept apart here.
# Assays:
# [1] = molecular target: T1, Human fibrinogen receptor (αIIbβ3) (Homo sapiens, UniProt P05106+P08514); test: Purified IIb/IIIa receptor assay (solid phase receptor assay, competition with biotinylated vitronectin); type: binding; conditions: purified human αIIbβ3 from platelets; 1 nM biotinylated vitronectin; highest concentration 1.0×10^−4 M
# T1 construct: Human fibrinogen receptor (αIIbβ3) was purified from outdated platelets; from tissue; host or cells: outdated (human) platelets
# Source text: Purified IIb/IIIa Receptor Assay
# Human fibrinogen receptor (αIIbβ3) was purified from outdated platelets. (Pytela, R., Pierschbacher, M. D., Argraves, S., Suzuki, S., and Rouslahti, E. “Arginine-Glycine-Aspartic acid adhesion receptors”, Methods in Enzymology 144(1987):475-489.) Human vitronectin was purified from fresh frozen plasma as described in Yatohgo, T., Izumi, M., Kashiwagi, H., and Hayashi, M., “Novel purification of vitronectin from human plasma by heparin affinity chromatography,” Cell Structure and Function 13(1988):281-292. Biotinylated human vitronectin was prepared by coupling NHS-biotin from Pierce Chemical Company (Rockford, Ill.) to purified vitronectin as previously described. (Charo, I. F., Nannizzi, L., Phillips, D. R., Hsu, M. A., Scarborough, R. M., “Inhibition of fibrinogen binding to GP IIb/IIIa by a GP IIIa peptide”, J. Biol. Chem. 266(3)(1991): 1415-1421.) Assay buffer, OPD substrate tablets, and RIA grade BSA were obtained from Sigma (St. Louis, Mo.). Anti-biotin antibody was obtained from Calbiochem (La Jolla, Calif.). Linbro microtiter plates were obtained from Flow Labs (McLean, Va.). ADP reagent was obtained from Sigma (St. Louis, Mo.).
# (§1) Solid Phase Receptor Assays
# This assay is essentially the same reported in Niiya, K., Hodson, E., Bader, R., Byers-Ward, V. Koziol, J. A., Plow, E. F. and Ruggeri, Z. M., “Increased surface expression of the membrane glycoprotein IIb/IIIa complex induced by platelet activation: Relationships to the binding of fibrinogen and platelet aggregation”, Blood 70(1987):475-483. The purified human fibrinogen receptor (αIIbβ3) was diluted from stock solutions to 1.0 μg/mL in Tris-buffered saline containing 1.0 mM Ca^++, Mg^++, and Mn^++, pH 7.4 (TBS^+++). The diluted receptor was immediately transferred to Linbro microtiter plates at 100 μL/well (100 ng receptor/well). The plates were sealed and incubated overnight at 4° C. to allow the receptor to bind to the wells. All remaining steps were at room temperature. The assay plates were emptied and 200 μL of 1% RIA grade BSA in TBS^+++ (TBS^+++/BSA) were added to block exposed plastic surfaces. Following a 2 hour incubation, the assay plates were washed with TBS^+++ using a 96 well plate washer. Logarithmic serial dilution of the test compound and controls were made starting at a stock concentration of 2 mM and using 2 nM biotinylated vitronectin in TBS^+++/BSA as the diluent. This premixing of labeled ligand with test (or control) ligand, and subsequent transfer of 50 μL aliquots to the assay plate was carried out with a CETUS Propette robot; the final concentration of the labeled ligand was 1 nM and the highest concentration of test compound was 1.0×10^−4 M. The competition occurred for two hours after which all wells were washed with a plate washer as before. Affinity purified horseradish peroxidase labeled goat anti-biotin antibody was diluted 1:3000 in TBS^+++/BSA and 125 μL were added to each well. After 30 minutes, the plates were washed and incubated with […] substrate in 100 mM/L citrate buffer, pH 5.0. The plate was read with a microtiter plate reader at a wavelength of 450 nm and when the maximum-binding control wells reached an absorbance of about 1.0, the final A450 were recorded for analysis. The data were analyzed using a macro written for use with the EXCEL™ spreadsheet program. The mean, standard deviation, and %CV were determined for duplicate concentrations. The mean A450 values were normalized to the mean of four maximum-binding controls (no competitor added) (B-MAX). The normalized values were subjected to a four parameter curve fit algorithm, [Robard et al., Int.
# [2] = molecular target: T2, Human vitronectin receptor (αvβ3) (Homo sapiens, UniProt P05106+P06756); test: Vitronectin adhesion assay (solid phase receptor assay, competition with biotinylated vitronectin); type: binding
# T2 construct: Human vitronectin receptor (αvβ3) was purified from human placenta as previously described; from tissue; host or cells: human placenta
# Protocol: Vitronectin Adhesion Assay
# Human vitronectin receptor (αvβ3) was purified from human placenta as previously described [Pytela et al., Methods in Enzymology, 144:475-489 (1987)]. Human vitronectin was purified from fresh frozen plasma as previously described [Yatohgo et al., Cell Structure and Function, 13:281-292 (1988)]. Biotinylated human vitronectin was prepared by coupling NHS-biotin from Pierce Chemical Company (Rockford, Ill.) to purified vitronectin as previously described [Charo et al., J. Biol. Chem., 266(3):1415-1421 (1991)]. Assay buffer, OPD substrate tablets, and RIA grade BSA were obtained from Sigma (St. Louis, Mo.). Anti-biotin antibody was obtained from Calbiochem (La Jolla, Calif.). Linbro microtiter plates were obtained from Flow Labs (McLean, Va.). ADP reagent was obtained from Sigma (St. Louis, Mo.).
# as §1
# This assay was essentially the same as previously reported [Niiya et al., Blood, 70:475-483 (1987)]. The purified human vitronectin receptor (αvβ3) was diluted from stock solutions to 1.0 μg/mL in Tris-buffered saline containing 1.0 mM Ca^++, Mg^++, and Mn^++, pH 7.4 (TBS^+++). The diluted receptor was immediately transferred to Linbro microtiter plates at 100 μL/well (100 ng receptor/well). The plates were sealed and incubated overnight at 4° C. to allow the receptor to bind to the wells. All remaining steps were at room temperature. The assay plates were emptied and 200 μL of 1% RIA grade BSA in TBS^+++ (TBS^+++/BSA) were added to block exposed plastic surfaces. Following a 2 hour incubation, the assay plates were washed with TBS^+++ using a 96 well plate washer. Logarithmic serial dilution of the test compound and controls were made starting at a stock concentration of 2 mM and using 2 nM biotinylated vitronectin in TBS^+++/BSA as the diluent. This premixing of labeled ligand with test (or control) ligand, and subsequent transfer of 50 μL aliquots to the assay plate was carried out with a CETUS Propette robot; the final concentration of the labeled ligand was 1 nM and the highest concentration of test compound was 1.0×10^−4 M. The competition occurred for two hours after which all wells were washed with a plate washer as before. Affinity purified horseradish peroxidase labeled goat anti-biotin antibody was diluted 1:3000 in TBS^+++/BSA and 125 μL were added to each well. After 30 minutes, the plates were washed and incubated with OPD/H2O2 substrate in 100 mM/L Citrate buffer, pH 5.0. The plate was read with a microtiter plate reader at a wavelength of 450 nm and when the maximum-binding control wells reached an absorbance of about 1.0, the final A450 were recorded for analysis. The data were analyzed using a macro written for use with the EXCEL™ spreadsheet program. The mean, standard deviation, and %CV were determined for duplicate concentrations. The mean A450 values were normalized to the mean of four maximum-binding controls (no competitor added) (B-MAX). The normalized values were subjected to a four parameter curve fit algorithm [Rodbard et al., Int.
# [3] = test system: Human platelet rich plasma; test: Human platelet rich plasma assay (ADP induced platelet aggregation); type: cell-based; conditions: concentration of half-maximal inhibition, read-out: Human PRP
# Protocol: Human Platelet Rich Plasma Assays
# Healthy aspirin free donors were selected from a pool of volunteers. The harvesting of platelet rich plasma and subsequent ADP induced platelet aggregation assays were performed as described in Zucker, M. B., “Platelet Aggregation Measured by the Photometric Method”, Methods in Enzymology 169(1989):117-133. Standard venipuncture techniques using a butterfly allowed the withdrawal of 45 mL of whole blood into a 60 mL syringe containing 5 mL of 3.8% trisodium citrate. Following thorough mixing in the syringe, the anti-coagulated whole blood was transferred to a 50 mL conical polyethylene tube. The blood was centrifuged at room temperature for 12 minutes at 200×g to sediment non-platelet cells. Platelet rich plasma was removed to a polyethylene tube and stored at room temperature until used. Platelet poor plasma was obtained from a second centrifugation of the remaining blood at 2000×g for 15 minutes. Platelet counts are typically 300,000 to 500,000 per microliter. Platelet rich plasma (0.45 mL) was aliquoted into siliconized cuvettes and stirred (1100 rpm) at 37° C. for 1 minute prior to adding 50 uL of pre-diluted test compound. After 1 minute of mixing, aggregation was initiated by the addition of 50 uL of 200 uM ADP. Aggregation was recorded for 3 minutes in a Payton dual channel aggregometer (Payton Scientific, Buffalo, N.Y.). […]
# [4] = purified human αvβ3 from placenta, 1 nM biotinylated vitronectin, highest concentration 1.0×10^−4 M, read-out: AvB3 IC50
Compound,IC50 [1] [nM],"IC50 [2, 4] [nM]",IC50 [3] [nM],"IC50 ([2]; positive control included on each plate, read-out: IC50 (αvβ3 antagonist, positive control)) [nM]"
"C=CC(CC(=O)O)NS(=O)(=O)c1cccc(NC(=O)c2cccc(NC(=N)N)c2)c1 (racemic) [Example 3, (±) 3-[[[3-[[[3-[(Aminoiminomethyl)amino]phenyl]-carbonyl]amino]phenyl]sulfonyl]amino]-4-pentenoic Acid, Trifluoroacetate Salt]",11.6,5.34,,
"N=C(N)Nc1cccc(C(=O)Nc2cccc(S(=O)(=O)NC(CC(=O)O)c3cc(Cl)cc(Cl)c3)c2)c1 (racemic) [Example 4, (±) β-[[[3-[[[3-[(Aminoiminomethyl)amino]phenyl]-carbonyl]amino]phenyl]sulfonyl]amino]-3,5-dichlorobenzene Propanoic Acid, Trifluoroacetate Salt]",987,659,,
"N=C(N)Nc1cccc(C(=O)Nc2cccc(S(=O)(=O)NC(CC(=O)O)c3ccccc3)c2)c1 (stereo not drawn) [Example 1, β-[[[3-[[[3-[(Aminoiminomethyl)amino]phenyl]carbonyl]amino]phenyl]sulfonyl]amino]-benzenepropanoic Acid, Trifluoroacetate Salt]",11.3,1.66,> 200000,
"C#C[C@H](CC(=O)O)NS(=O)(=O)c1cccc(NC(=O)c2cccc(NC3=NCCN3)c2)c1 [Example 7, 3S-[[[3-[[[3-[(4,5-Dihydro-1H-imidazol-2-yl)amino]-phenyl]carbonyl]amino]phenyl]sulfonyl]amino]-4-pentynoic Acid, Trifluoroacetate Salt]",418,15,,
"N=C(N)Nc1cccc(S(=O)(=O)Nc2cccc(S(=O)(=O)NC(CC(=O)O)c3ccccc3)c2)c1 (stereo not drawn) [Example 9, β-[[[3-[[[3-[(Aminoiminomethyl)amino]phenyl]-sulfonyl]amino]phenyl]sulfonyl]amino]phenyl-propanoic Acid, Trifluoroacetate Salt]",93.6,29.3,,
β-[[2-[[5-[(aminoiminomethyl)amino]-1-oxopentyl]amino]-1-oxoethyl]amino]-3-pyridinepropanoic acid [reference compound],,,,3 to 10

# Continued by falling IC50 [1], values first:
IC50 [1] [nM],"IC50 [2, 4] [nM]",Compound,IC50 [3] [nM],"IC50 ([2]; positive control included on each plate, read-out: IC50 (αvβ3 antagonist, positive control)) [nM]"
3920,183,"N=C(N)Nc1cccc(C(=O)Nc2cccc(S(=O)(=O)N3CCCCC3CC(=O)O)c2)c1 (stereo not drawn) [Example 6, 1-[[3-[[[3-[(Aminoiminomethyl)amino]phenyl]carbonyl]-amino]phenyl]sulfonyl]piperidine-2-acetic Acid, Trifluoroacetate Salt]",,
38.2,11.3,"C#CC(CC(=O)O)NS(=O)(=O)c1cccc(NC(=O)c2cccc(NC(=N)N)c2)c1 (stereo not drawn) [Example 8, 3-[[[3-[[[3-[(Aminoiminomethyl)amino]phenyl]-carbonyl]amino]phenyl]sulfonyl]amino]-4-pentynoic Acid, Trifluoroacetate Salt]",,
24.7,4.66,"N=C(N)Nc1cccc(C(=O)Nc2cccc(S(=O)(=O)NC(CC(=O)O)c3cccnc3)c2)c1 (stereo not drawn) [Example 5, β-[[[3-[[[3-[(Aminoiminomethyl)amino]phenyl]-carbonyl]amino]phenyl]sulfonyl]amino]pyridine-3-propanoic Acid, tris(Trifluoroacetate) Salt]",,
